Measurements published in US10344264B2, “Culturing of human embryonic stem cells at the air-liquid interface for differentiation into pancreatic endocrine cells” (Janssen Biotech, Inc., priority 2012, dated 2019).
Where two headings read alike, the source gives them in different places.

Columns and labels:
[1] = system: cells of the human embryonic stem cell line H1; experiment: Real-time PCR of Stage 6 cells at the air-liquid interface with gamma secretase inhibitor XX (Example 12); format: cell-based; details: 100 nM to 5000 nM at Stage 6; mRNA at Stage 6 day 4 and day 8
Method: This example highlights that NOTCH inhibitors, such as gamma secretase inhibitors, further enhance maturation markers of β cells while retaining expression of NKX6.1.
At Stage 6, various doses (100 nM to 5000 nM) of gamma Secretase inhibitor XX (EMD, #565789) were tested. mRNA was collected at Stage 6 day 4 and Stage 6 day 8. FIG. 21 depicts the PCR data for key β cell maturation markers along with pancreatic progenitor markers.

[2] = system: cells of the human embryonic stem cell line H1
Method: Cells of the human embryonic stem cell line H1 (passage 40) were seeded as single cells at 1×10^5 cells/cm^2 on […] ™ (1:30 dilution; BD Biosciences, NJ)-coated dishes or Matrigel-coated filter inserts (Millipore PIHT 30R 48) in a media comprising of DMEM-F12 (Invitrogen, Ca), Glutamax (1:100 dilution, Invitrogen), 0.25 mM ascorbic acid (Sigma, MO), 100 ng/ml of FGF2 (R & D systems, MN), 1 ng/ml of TGF-B (R & D systems), ITS-X (1:100 dilution), 2% fatty-acid free BSA (Lampire, PA), and 20 ng/ml of IGF-1 (R & D systems), supplemented with 10 μM of Y27632 (Rock inhibitor, Catalog No. Y0503, SigmaAldrich, St. Louis, Mo.). Forty-eight hours post seeding, cultures were washed in incomplete PBS (phosphate buffered saline without Mg or Ca). The cells were then differentiated according to the following protocol: • a) Stage 1 (3 days): Cells were cultured for one day in MCDB-131 medium (Invitrogen Catalog No. 10372-019) supplemented with 2% fatty acid-free BSA (Proliant Catalog No. 68700), 0.0012 g/ml sodium bicarbonate (SigmaAldrich Catalog No. S3187), 1× GlutaMax™ (Invitrogen Catalog No. 35050-079), 4.5 mM D-Glucose (SigmaAldrich Catalog No. G8769), 100 ng/ml GDF8 (R&D Systems) and 1 μM MCX compound. Cells were then cultured for an additional day in MCDB-131 medium supplemented with 2% fatty acid-free BSA, 0.0012 g/ml sodium bicarbonate, 1× GlutaMax™, 4.5 mM D-Glucose, 100 ng/ml GDF8, and 0.1 μM MCX compound. […]

[3] = system: cells of the human embryonic stem cell line H1; remark: listed apart in the source
Source text: At Stage 4 and subsequent cultures, mRNA was collected for PCR analysis of relevant pancreatic endoderm/endocrine genes. Total RNA was extracted with the RNeasy® Mini Kit (Qiagen; Valencia, Calif.) and reverse-transcribed using a High Capacity cDNA Reverse Transcription Kit (Applied Biosystems, Foster City, Calif.) according to manufacturers' instructions. cDNA was amplified using Taqman Universal Master Mix and Taqman Gene Expression Assays which were pre-loaded onto custom Taqman Arrays (Applied Biosystems).
Cells were then cultured for an additional day in MCDB-131 medium supplemented with 2% fatty acid-free BSA, 0.0012 g/ml sodium bicarbonate, 1× GlutaMax™, 4.5 mM D-Glucose, 100 ng/ml GDF8, and 0.1 μM MCX compound. […]

[4] = system: cells of the human embryonic stem cell line H1; details: air-liquid interface, 1000 nM ALK5 inhibitor in Stages 5 and 6
Method: Cells of the human embryonic stem cell line H1 (passage 40) were seeded as single cells at 1×10^5 cells/cm^2 on […] ™ (1:30 dilution; BD Biosciences, NJ)-coated dishes in a media comprising DMEM-F12 (Invitrogen, Ca), GlutaMax™ (1:100 dilution, Invitrogen), 0.25 mM ascorbic acid (Sigma, MO), 100 ng/ml of FGF2 (R & D systems, MN), 1 ng/ml of TGF-β (R & D systems), ITS-X (1:100 dilution), 2% fatty-acid free BSA (Lampire, PA), and 20 ng/ml of IGF-1 (R & D systems), supplemented with 10 μM of Y27632 (Rock inhibitor, Catalog No. Y0503, Sigma-Aldrich). Forty-eight hours post-seeding, cultures were washed in incomplete PBS (phosphate buffered saline without Mg or Ca). The cells were then differentiated according to the following protocol: • a. Stage 1 (3 days): Cells were cultured for one day in MCDB-131 medium (Invitrogen Catalog No. 10372-019) supplemented with 2% fatty acid-free BSA (Proliant, Catalog No. 68700); 0.0012 g/ml sodium bicarbonate (Sigma-Aldrich, Catalog No. S3187); 1× GlutaMax™ (Invitrogen, Catalog No. 35050-079); 4.5 mM D-glucose (Sigma-Aldrich, Catalog No. G8769); 100 ng/ml GDF8 (R&D Systems); and 1 μM MCX compound. Cells were then cultured for an additional day in MCDB-131 medium supplemented with: 2% fatty acid-free BSA; 0.0012 g/ml sodium bicarbonate; 1× GlutaMax™; 4.5 mM D-Glucose; 100 ng/ml GDF8; and 0.1 μM MCX compound. […]

[5] = system: cells of the human embryonic stem cell line H1; details: air-liquid interface; mRNA at Stage 6 day 5 and day 8
Method: Cells of the human embryonic stem cell line H1 (passage 42) were seeded as single cells at 1×10^5 cells/cm^2 on […] ™ (1:30 dilution; BD Biosciences, NJ)-coated dishes in a media comprising of DMEM-F12 (Invitrogen, Ca), GlutaMax™ (1:100 dilution, Invitrogen), 0.25 mM ascorbic acid (Sigma, MO), 100 ng/ml of FGF2 (R & D systems, MN), 1 ng/ml of TGF-β (R & D systems), ITS-X (1:100 dilution), 2% fatty-acid free BSA (Lampire, PA), and 20 ng/ml of IGF-1 (R & D systems), supplemented with 10 μM of Y27632 (Rock inhibitor, Catalog No. Y0503, Sigma). Forty-eight hours post-seeding, cultures were washed in incomplete PBS (phosphate buffered saline without Mg or Ca). The cells were then differentiated according to the following protocol: • a) Stage 1 (3 days): Cells were cultured for one day in MCDB-131 medium (Invitrogen Catalog No. 10372-019) supplemented with 2% fatty acid-free BSA (Proliant Catalog No. 68700), 0.0012 g/ml sodium bicarbonate (Sigma-Aldrich Catalog No. S3187); 1× GlutaMax™ (Invitrogen Catalog No. 35050-079); 4.5 mM D-glucose (Sigma-Aldrich Catalog No. G8769); 100 ng/ml GDF8 (R&D Systems); and 1 μM MCX compound. Cells were then cultured for an additional day in MCDB-131 medium supplemented with 2% fatty acid-free BSA, 0.0012 g/ml sodium bicarbonate, 1× GlutaMax™, 4.5 mM D-glucose, 100 ng/ml GDF8, and 0.1 μM MCX compound. […]

C[C@H](NC(=O)Cc1cc(F)cc(F)c1)C(=O)N[C@@H]1C(=O)N(C)c2ccccc2-c2ccccc21 [gamma Secretase inhibitor XX]
Amylin expression [1]: significantly upregulated | MAFA expression [1]: significantly upregulated | NKX6.1 expression [1]: not significantly affected | PTF1a expression [1]: significantly down regulated | SOX9 expression [1]: significantly down regulated | insulin expression [1]: significantly upregulated

Cc1cccc(-c2[nH]ncc2-c2ccc3ncccc3n2)n1 [ALK5 inhibitor II]
co-expression of NKX6.1 and chromogranin-A (immunostaining) ([2]; Stage 6 cells at the air-liquid interface, 1 micro molar inhibitor): co-expression of NKX6.1 and chromogranin-A | number of NKX6.1 positive cells co-expressing insulin or chromogranin-A ([2]; filter inserts at the air-liquid interface): significantly enhanced | number of NKX6.1 positive cells co-expressing insulin or chromogranin-A ([2]; same protocol on traditional monolayer cultures): failed to show significant numbers | insulin expression at Stage 6 as compared to Stage 5 ([3]; cultures at the air-liquid interface): enhancement | insulin expression at Stage 6 as compared to Stage 5 ([3]; planar cultures treated at Stage 5 and Stage 6): drop | expression of glucagon [4]: significantly enhanced | expression of insulin [4]: significantly enhanced | expression of MAFA on removal of the inhibitor at Stage 6 [5]: dramatic drop
